Assay results reported in EP1234575A1, “Furan fatty acids for improving the efficiency of cytostatic and/or radiation therapy” (Deigner, Hans-Peter, Dr., priority 2001, dated 2002).

Experiments:
[1] = system: Nierenkarzinomzelllinie (RENCA); assay: Apoptosis in RENCA renal carcinoma cells: FFS alone or 2 h FFS pre-incubation followed by a cytostatic (YO-PRO-1 positive cells, DNA laddering); format: cell-based; conditions: for Zahl apoptotischer Zellen bei 50 nM relativ zu 100 nM: 50 nM FFS versus 100 nM FFS, plus Daunorubicin; for Zahl apoptotischer Zellen bei 50 nM relativ zu 100 nM / höhere Anzahl apoptotischer Zellen im Vergleich zur Kontrolle mit Daunorubicin alleine / Konzentrationsabhängigkeit des prozentualen Anteils apoptotischer Zellen: Renca-Zellen; for höhere Anzahl apoptotischer Zellen im Vergleich zur Kontrolle mit Daunorubicin alleine: 1000 nM FFS plus Daunorubicin (1 µM per Figur 3); for Konzentrationsabhängigkeit des prozentualen Anteils apoptotischer Zellen: FFS 0 to 1000 nM plus Daunorubicin
Excerpt: (§1) Untersuchungen der pro- bzw. antiapoptotischen Wirkung der FFS wurden an einer Nierenkarzinomzelllinie (RENCA; Murphy et al., J. Natl. Cancer Inst. 50: 1013, 1973) durchgeführt. Dazu wurden die Zellen 22 Stunden zum einen mit einem Zytostatikum, zum anderen mit der entsprechenden FFS sowie einer Kontrolle und einer Kombination aus FFS und Zytostatikum inkubiert. Für die Substanzkombination aus FFS und Zytostatikum wurden die Zellen zwei Stunden mit der jeweiligen FFS vorinkubiert, anschließend das Zytostatikum zugegeben und danach für 24 Stunden im Brutschrank inkubiert. Die verwendeten Konzentrationen sind in Figur 3 angegeben. Diese Untersuchungen wurden mit den Verbindungen 11a/11b, 12b, 6b, 13b und 14 sowie jeweils für jedes Zytostatikum getrennt durchgeführt. Es zeigte sich bei keiner der getesteten FFS (alleinige Zugabe) eine signifikante Zunahme der Zahl apoptotischer Zellen gegenüber der Kontrolle. Bei Inkubation der Zellen mit einer FFS und anschließender Zytostatikumgabe konnten unterschiedliche Effekte beobachtet werden .
Bei den alkin-substituierten FFS wurde bei Verwendung von Daunorubicin in Kombination mit 11a eine Zunahme von 60% und in Kombination mit 11b eine Abnahme der Anzahl apoptotischer Zellen gemessen. Bei Verwendung von Vinblastin als Zytostatikum nahm bei beiden FFS 11a und 11b die Zahl apoptotischer Zellen von 60% bzw. 160% zu.
(§2) Da die FFS 11a und 11b als einzige aller synthetisierten FFS eine signifikante Zunahme an apoptotischen Zellen bei Inkubation in Kombination mit einem Zytostatikum zeigten, wurde untersucht, ob dieser Effekt von der Konzentration der FFS abhängt. Daher wurde das oben beschriebene Experiment an Renca-Zellen unter den gleichen Bedingungen, aber mit jeweils verschiedenen Konzentrationen von 11a bzw. 11b im Bereich von 0 bis 1000 nM durchgeführt (Figur 3). […] Der prozentuale Anteil apoptotischer Zellen nahm mit steigender FFS Konzentration zu und mit fallender ab. Bei Inkubation mit einer 1000 nM-Lösung wurde eine 6.1 bzw. 5.2-fach höhere Anzahl apoptotischer Zellen im Vergleich zur Kontrolle mit Daunorubicin alleine festgestellt. […] Bei Inkubation der Zellen mit FFS ohne Zytostatikum wurden auch bei hoher FFS Konzentration keine signifikante Zu- bzw. Abnahme der Apoptoserate festgestellt. Die Apoptoserate wurde routinemäßig durch Messung YO-PRO-1 positiver Zellen^5,6 DNA-Leiter-Untersuchungen ("DNA-laddering") ermittelt.

Morris-Hepatom = assay: Apoptosis in Morris hepatoma cells: FFS alone or FFS pre-incubation followed by a cytostatic; format: cell-based, Ratte
Excerpt: as §1
Aufgrund dieser Effekte wurde mit den alkin-substituierten FFS 11a und 11b an einer weiteren Karzinomzelllinie (Morris-Hepatom; Tumorbank DKFZ Heidelberg, TZB No. 620143, MH TC 5123, histologischer Typ: Hepatom, Herkunft/Spezies: Ratte, Buffalo) die oben beschriebenen Untersuchungen durchgeführt. Die Konzentrationen der verwendeten FFS bzw. Zytostatika sind in Figur 4 angegeben. FFS alleine zeigten auch hier keine Effekte. Bei einer Kombination aus Daunorubicin mit der FFS 11a bzw. 11b stieg die Zahl apoptotischer Zellen um 130% bzw. 60% und bei einer Kombination FFS 11a bzw. 11b mit Vinblastin um 85% bzw. 50% .
as §2

[2] = 2 h FFS pre-incubation, then Daunorubicin, 24 h, RENCA
[3] = 2 h FFS pre-incubation, then Vinblastin, 24 h, RENCA

For `CCC(=O)/C=C/c1ccc(CCCCCCCCCCC(=O)OC)o1` [6b, 11-[5(3-Oxo-pentenyl)-furan-2-yl]-undecansäure-methylester], the “Anzahl apoptotischer Zellen (change, in words)” value [1, 2] was “leichter Rückgang” and the “Anzahl apoptotischer Zellen (change, in words)” value [1, 3] was “leichter Rückgang”.
For `CCC(=O)/C=C/c1ccc(C#CCCCCCCCCC(=O)OC)o1` [11b, 11-[5-(3-Oxo-1-pentenyl)-furan-2-yl]-10-undecinsäure-methylester], the “Zahl apoptotischer Zellen bei 50 nM relativ zu 100 nM” value [1] was “ca. halb so groß”, the “höhere Anzahl apoptotischer Zellen im Vergleich zur Kontrolle mit Daunorubicin alleine” value [1] was 5.2 fach and the “Anzahl apoptotischer Zellen (change, in words)” value [1, 2] was “Abnahme”. The “Zunahme der Zahl apoptotischer Zellen” value [1, 3] was 160%, the “Konzentrationsabhängigkeit des prozentualen Anteils apoptotischer Zellen” value [1] was “deutliche Konzentrationsabhängigkeit” and the “Anstieg der Zahl apoptotischer Zellen” value (Morris-Hepatom; FFS combined with Daunorubicin) was 60%. The “Anstieg der Zahl apoptotischer Zellen” value (Morris-Hepatom; FFS combined with Vinblastin) was 50%.
With `COC(=O)CCCCCCCCC#Cc1ccc(/C=C/C(C)=O)o1` [11a, 11-[5-(3-Oxo-1-butenyl)-furan-2-yl]-10-undecinsäuremethylester] the “Zahl apoptotischer Zellen bei 50 nM relativ zu 100 nM” value [1] was “ca. halb so groß”, the “höhere Anzahl apoptotischer Zellen im Vergleich zur Kontrolle mit Daunorubicin alleine” value [1] was 6.1 fach and the “Zunahme der Anzahl apoptotischer Zellen” value [1, 2] was 60%. For the same molecule, the “Zunahme der Zahl apoptotischer Zellen” value [1, 3] was 60%, the “Konzentrationsabhängigkeit des prozentualen Anteils apoptotischer Zellen” value [1] was “deutliche Konzentrationsabhängigkeit” and the “Anstieg der Zahl apoptotischer Zellen” value (Morris-Hepatom; FFS combined with Daunorubicin) was 130%. The “Anstieg der Zahl apoptotischer Zellen” value (Morris-Hepatom; FFS combined with Vinblastin) was 85%.
With `CCC(=O)/C=C/c1ccc(/C=C\CCCCCCCCC(=O)OC)o1` [12b] the “Anzahl apoptotischer Zellen (change, in words)” value [1, 2] was “leichter Rückgang” and the “Anzahl apoptotischer Zellen (change, in words)” value [1, 3] was “leichter Rückgang”.
For `CCC(=O)CCc1ccc(CCCCCCCCCCC(=O)OC)o1` [13b, 11-[5(3-Oxo-pentyl)-furan-2-yl]-undecansäure-methylester], the “Anzahl apoptotischer Zellen (change, in words)” value [1, 2] was “leichter Rückgang” and the “Anzahl apoptotischer Zellen (change, in words)” value [1, 3] was “leichter Rückgang”.
